Experiments:
P2Y purinoceptor 2 = P2Y purinoceptor 2 (Homo sapiens, UniProt P41231); assay: Evaluated for agonist activity against phospholipase C coupled recombinant human P2Y purinoceptor 2 (P2Y2); type: functional
P2X purinoceptor 2 [1] = target: P2X purinoceptor 2 (Homo sapiens, UniProt Q9UBL9); assay: The compound was evaluated for antagonist activity against recombinant human receptor P2X purinoceptor 2 (P2X2 ); type: functional
P2X purinoceptor 4 [2] = target: T1, P2X purinoceptor 4 (Homo sapiens, UniProt Q99571); assay: Antagonist activity against recombinant human P2X purinoceptor 4 (P2X4); type: functional
T1 sequence (Q99571 whole entry): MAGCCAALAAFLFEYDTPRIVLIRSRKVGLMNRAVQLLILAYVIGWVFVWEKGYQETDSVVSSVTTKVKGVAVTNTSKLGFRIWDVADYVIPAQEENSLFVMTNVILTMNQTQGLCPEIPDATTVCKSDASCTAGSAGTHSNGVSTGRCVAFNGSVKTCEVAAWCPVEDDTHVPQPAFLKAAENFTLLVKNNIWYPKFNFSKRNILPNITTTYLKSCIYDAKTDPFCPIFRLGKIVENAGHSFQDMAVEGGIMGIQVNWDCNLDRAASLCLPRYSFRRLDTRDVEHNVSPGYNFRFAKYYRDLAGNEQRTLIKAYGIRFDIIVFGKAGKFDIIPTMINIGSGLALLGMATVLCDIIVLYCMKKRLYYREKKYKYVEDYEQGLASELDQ

P2Y purinoceptor 4 = P2Y purinoceptor 4 (Rattus norvegicus, UniProt O35811); assay: The compound was evaluated for antagonist activity against phospholipase C coupled recombinant rat P2Y purinoceptor 4 (P2Y4); type: functional
P2Y purinoceptor 4, sequence (O35811 whole entry): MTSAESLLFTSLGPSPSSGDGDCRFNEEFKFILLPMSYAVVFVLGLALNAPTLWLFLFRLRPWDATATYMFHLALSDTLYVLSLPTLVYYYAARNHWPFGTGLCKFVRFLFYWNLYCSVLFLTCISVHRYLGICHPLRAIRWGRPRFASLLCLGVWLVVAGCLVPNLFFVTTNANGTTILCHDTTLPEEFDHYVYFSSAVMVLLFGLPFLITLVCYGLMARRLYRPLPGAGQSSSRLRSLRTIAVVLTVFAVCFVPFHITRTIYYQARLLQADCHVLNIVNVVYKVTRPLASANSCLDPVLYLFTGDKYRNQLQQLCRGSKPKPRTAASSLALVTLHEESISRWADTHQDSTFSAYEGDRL

P2X purinoceptor 1 = target: T2, P2X purinoceptor 1 (Homo sapiens, UniProt P51575); assay: Antagonist activity against recombinant human P2X purinoceptor 1 (P2X1 ); type: functional
T2 sequence (P51575 whole entry): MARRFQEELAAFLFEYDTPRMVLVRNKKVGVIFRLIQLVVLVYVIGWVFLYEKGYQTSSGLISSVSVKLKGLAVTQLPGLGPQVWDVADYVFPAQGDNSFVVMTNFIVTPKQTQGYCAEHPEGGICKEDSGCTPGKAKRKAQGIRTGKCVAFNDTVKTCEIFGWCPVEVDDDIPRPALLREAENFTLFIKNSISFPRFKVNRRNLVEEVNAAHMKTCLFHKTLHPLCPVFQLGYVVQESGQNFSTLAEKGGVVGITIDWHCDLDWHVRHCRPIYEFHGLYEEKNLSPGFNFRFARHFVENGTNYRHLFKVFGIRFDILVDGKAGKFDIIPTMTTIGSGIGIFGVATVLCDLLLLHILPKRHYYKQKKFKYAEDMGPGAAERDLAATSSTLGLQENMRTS

P2X purinoceptor 3 = target: T3, P2X purinoceptor 3 (Homo sapiens, UniProt P56373); assay: Antagonist activity against recombinant human P2X purinoceptor 3 (P2X3 ); type: functional
T3 sequence (P56373 whole entry): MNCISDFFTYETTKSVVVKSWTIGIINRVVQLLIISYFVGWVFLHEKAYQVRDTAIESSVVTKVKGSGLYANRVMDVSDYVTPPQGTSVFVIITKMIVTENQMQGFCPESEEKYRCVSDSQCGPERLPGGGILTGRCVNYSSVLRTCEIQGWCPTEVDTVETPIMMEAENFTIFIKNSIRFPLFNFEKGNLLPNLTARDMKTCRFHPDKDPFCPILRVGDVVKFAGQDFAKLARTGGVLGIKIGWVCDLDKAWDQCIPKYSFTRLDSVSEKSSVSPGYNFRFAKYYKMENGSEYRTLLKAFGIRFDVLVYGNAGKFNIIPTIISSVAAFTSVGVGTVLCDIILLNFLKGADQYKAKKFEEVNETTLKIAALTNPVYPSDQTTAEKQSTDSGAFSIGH

P2X purinoceptor 7 = target: T4, P2X purinoceptor 7 (Homo sapiens, UniProt Q99572); assay: Antagonist activity against recombinant human P2X purinoceptor 7 (P2X7); type: functional
T4 sequence (Q99572 whole entry): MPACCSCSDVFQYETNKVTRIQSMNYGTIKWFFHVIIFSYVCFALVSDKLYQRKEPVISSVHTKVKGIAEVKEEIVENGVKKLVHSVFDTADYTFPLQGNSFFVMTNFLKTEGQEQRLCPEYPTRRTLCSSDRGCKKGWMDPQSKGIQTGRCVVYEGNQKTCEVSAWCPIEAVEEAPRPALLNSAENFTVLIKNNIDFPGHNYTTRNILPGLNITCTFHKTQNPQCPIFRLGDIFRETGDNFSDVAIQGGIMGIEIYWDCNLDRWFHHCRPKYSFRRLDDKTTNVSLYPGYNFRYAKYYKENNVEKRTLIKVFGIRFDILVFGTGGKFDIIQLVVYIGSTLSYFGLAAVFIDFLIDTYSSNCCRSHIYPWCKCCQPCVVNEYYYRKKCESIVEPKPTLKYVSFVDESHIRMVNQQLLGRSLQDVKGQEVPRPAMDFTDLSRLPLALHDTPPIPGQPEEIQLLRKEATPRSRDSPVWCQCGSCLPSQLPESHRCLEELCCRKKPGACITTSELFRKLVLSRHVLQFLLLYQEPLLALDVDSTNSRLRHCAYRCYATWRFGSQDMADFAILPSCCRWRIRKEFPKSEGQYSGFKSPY

P2Y purinoceptor 12 = P2Y purinoceptor 12 (Rattus norvegicus, UniProt Q9EPX4); assay: Antagonist activity against phospholipase C coupled rat P2Y purinoceptor 12 (P2Y12); type: functional
P2Y purinoceptor 12, sequence (Q9EPX4 whole entry): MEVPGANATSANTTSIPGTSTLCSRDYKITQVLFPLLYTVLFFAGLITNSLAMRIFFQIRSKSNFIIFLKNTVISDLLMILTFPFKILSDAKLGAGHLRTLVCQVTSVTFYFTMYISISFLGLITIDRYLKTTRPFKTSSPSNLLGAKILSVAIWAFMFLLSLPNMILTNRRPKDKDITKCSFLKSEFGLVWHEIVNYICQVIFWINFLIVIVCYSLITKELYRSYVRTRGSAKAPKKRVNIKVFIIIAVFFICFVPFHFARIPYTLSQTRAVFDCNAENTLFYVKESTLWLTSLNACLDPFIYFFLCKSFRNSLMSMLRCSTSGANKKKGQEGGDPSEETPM

P2X purinoceptor 4 [3] = target: T5, P2X purinoceptor 4 (Rattus norvegicus, UniProt P51577); assay: Antagonist activity against recombinant rat P2X purinoceptor 4 (P2X4) at 30 uM, expressed in Xenopus oocytes; type: functional, cell-based, Oocyte
T5 sequence (P51577 whole entry): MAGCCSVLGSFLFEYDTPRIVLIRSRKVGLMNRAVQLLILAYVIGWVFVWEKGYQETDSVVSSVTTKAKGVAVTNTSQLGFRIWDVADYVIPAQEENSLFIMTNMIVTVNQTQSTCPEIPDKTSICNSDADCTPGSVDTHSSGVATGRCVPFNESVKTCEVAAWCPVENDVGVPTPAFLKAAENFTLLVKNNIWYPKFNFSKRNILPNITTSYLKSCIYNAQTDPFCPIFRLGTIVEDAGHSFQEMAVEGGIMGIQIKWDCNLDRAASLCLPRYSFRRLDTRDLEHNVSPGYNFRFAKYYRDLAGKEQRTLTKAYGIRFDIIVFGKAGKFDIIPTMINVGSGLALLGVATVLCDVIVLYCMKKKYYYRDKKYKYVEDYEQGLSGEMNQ

P2X purinoceptor 2 [4] = target: T6, P2X purinoceptor 2 (Rattus norvegicus, UniProt P49653); assay: Antagonist activity against recombinant rat receptor P2X purinoceptor 2 (P2X2) at 10 uM, expressed in Xenopus oocytes; type: functional, cell-based, Oocyte
T6 sequence (P49653 whole entry): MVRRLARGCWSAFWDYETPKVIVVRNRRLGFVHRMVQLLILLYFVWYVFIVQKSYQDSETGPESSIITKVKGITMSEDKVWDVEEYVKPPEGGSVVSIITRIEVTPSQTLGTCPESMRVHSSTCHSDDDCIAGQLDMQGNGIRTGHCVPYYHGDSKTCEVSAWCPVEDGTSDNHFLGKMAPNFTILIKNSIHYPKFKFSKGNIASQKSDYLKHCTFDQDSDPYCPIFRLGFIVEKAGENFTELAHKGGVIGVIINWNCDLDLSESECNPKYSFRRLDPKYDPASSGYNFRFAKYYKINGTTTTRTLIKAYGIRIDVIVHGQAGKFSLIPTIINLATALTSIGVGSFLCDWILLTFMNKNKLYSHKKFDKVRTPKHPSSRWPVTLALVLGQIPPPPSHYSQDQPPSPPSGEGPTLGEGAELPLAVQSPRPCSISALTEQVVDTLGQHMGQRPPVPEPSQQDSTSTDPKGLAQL

P2X purinoceptor 6 = P2X purinoceptor 6 (Rattus norvegicus, UniProt P51579); assay: Antagonist activity against recombinant rat P2X purinoceptor 6 (P2X6 ); type: functional
P2X purinoceptor 6, sequence (P51579 whole entry): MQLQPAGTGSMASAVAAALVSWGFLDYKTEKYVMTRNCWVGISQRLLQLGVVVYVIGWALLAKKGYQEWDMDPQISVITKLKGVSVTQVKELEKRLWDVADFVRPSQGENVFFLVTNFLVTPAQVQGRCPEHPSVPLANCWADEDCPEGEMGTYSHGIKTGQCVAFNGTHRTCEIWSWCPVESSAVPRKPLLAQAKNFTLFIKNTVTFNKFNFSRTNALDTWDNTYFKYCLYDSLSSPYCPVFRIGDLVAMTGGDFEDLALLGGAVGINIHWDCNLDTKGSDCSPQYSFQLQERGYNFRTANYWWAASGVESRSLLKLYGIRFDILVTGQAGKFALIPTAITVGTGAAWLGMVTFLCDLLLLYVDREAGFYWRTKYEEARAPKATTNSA

P2Y purinoceptor 1 [5] = target: P2Y purinoceptor 1 (Meleagris gallopavo, UniProt P49652); assay: Evaluated for agonist activity against phospholipase C coupled P2Y purinoceptor 1 (P2Y1) of turkey erythrocytes; type: functional
P2Y purinoceptor 1 (Meleagris gallopavo, UniProt P49652), sequence (P49652 whole entry): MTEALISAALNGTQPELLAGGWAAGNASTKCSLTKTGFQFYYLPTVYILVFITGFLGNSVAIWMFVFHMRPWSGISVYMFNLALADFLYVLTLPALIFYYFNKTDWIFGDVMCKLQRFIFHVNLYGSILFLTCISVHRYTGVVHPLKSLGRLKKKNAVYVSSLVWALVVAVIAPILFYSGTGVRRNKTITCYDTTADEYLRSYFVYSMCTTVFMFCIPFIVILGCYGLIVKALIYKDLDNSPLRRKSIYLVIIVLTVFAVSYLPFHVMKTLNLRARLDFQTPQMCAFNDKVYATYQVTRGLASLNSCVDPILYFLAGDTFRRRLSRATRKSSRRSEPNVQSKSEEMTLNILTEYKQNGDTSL

P2X purinoceptor 5 = target: T7, P2X purinoceptor 5 (Rattus norvegicus, UniProt P51578); assay: Antagonist activity against recombinant rat P2X purinoceptor 5 (P2X5); type: functional
T7 sequence (P51578 whole entry): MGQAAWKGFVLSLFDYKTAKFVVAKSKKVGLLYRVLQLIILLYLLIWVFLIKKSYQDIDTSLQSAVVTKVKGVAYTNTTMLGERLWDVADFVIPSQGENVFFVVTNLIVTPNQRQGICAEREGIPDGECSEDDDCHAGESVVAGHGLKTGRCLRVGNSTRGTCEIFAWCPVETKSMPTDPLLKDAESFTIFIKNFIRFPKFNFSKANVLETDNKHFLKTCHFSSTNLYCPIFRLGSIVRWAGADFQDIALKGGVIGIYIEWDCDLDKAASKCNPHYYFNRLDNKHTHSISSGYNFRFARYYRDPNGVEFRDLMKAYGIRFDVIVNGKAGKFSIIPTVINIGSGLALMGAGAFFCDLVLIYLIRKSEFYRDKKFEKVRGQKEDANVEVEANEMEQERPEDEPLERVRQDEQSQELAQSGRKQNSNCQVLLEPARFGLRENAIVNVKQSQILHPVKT

P2Y purinoceptor 6 = P2Y purinoceptor 6 (Homo sapiens, UniProt Q15077); assay: The compound was evaluated for agonist activity against phospholipase C coupled recombinant human P2Y purinoceptor 6 (P2Y6); type: functional
P2Y purinoceptor 6, sequence (Q15077 whole entry): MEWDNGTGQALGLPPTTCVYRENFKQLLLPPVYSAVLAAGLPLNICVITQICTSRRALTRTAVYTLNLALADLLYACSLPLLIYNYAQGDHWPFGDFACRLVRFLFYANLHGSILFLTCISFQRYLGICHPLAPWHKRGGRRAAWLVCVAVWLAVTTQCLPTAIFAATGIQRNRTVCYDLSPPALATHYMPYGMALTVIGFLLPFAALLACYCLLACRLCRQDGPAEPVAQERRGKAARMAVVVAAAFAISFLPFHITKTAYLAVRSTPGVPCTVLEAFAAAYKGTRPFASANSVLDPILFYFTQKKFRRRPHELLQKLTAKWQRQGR

P2Y purinoceptor 1 [6] = target: P2Y purinoceptor 1 (Homo sapiens, UniProt P47900); assay: Evaluated for agonist activity against phospholipase C coupled P2Y purinoceptor 1 (P2Y1) of human erythrocytes; type: functional
P2Y purinoceptor 1 (Homo sapiens, UniProt P47900), sequence (P47900 whole entry): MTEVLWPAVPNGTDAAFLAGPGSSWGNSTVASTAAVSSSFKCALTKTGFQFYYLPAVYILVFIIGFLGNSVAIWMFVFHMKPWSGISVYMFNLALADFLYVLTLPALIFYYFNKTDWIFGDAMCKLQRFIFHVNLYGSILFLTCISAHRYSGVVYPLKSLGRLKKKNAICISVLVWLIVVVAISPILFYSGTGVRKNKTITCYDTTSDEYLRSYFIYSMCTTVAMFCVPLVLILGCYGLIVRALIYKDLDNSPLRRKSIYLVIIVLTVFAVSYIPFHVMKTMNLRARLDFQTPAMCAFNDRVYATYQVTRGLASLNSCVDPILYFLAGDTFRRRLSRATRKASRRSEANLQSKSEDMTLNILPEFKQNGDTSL

P2Y purinoceptor 11 = target: T8, P2Y purinoceptor 11 (Homo sapiens, UniProt Q96G91); assay: Agonist activity against phospholipase C coupled human P2Y purinoceptor 11 (P2Y11); type: functional
T8 sequence (Q96G91 whole entry): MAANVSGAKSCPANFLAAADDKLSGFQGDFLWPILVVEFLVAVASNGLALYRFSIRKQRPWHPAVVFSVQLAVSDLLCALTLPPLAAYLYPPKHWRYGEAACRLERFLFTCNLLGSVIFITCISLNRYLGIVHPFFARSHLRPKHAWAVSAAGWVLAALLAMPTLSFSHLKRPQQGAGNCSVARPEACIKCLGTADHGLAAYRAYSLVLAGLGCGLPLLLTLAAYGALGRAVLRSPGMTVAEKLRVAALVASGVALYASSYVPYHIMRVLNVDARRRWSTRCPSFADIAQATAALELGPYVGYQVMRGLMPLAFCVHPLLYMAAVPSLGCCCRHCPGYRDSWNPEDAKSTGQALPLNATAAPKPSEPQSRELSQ

P2Y purinoceptor 2, sequence (P41231 whole entry): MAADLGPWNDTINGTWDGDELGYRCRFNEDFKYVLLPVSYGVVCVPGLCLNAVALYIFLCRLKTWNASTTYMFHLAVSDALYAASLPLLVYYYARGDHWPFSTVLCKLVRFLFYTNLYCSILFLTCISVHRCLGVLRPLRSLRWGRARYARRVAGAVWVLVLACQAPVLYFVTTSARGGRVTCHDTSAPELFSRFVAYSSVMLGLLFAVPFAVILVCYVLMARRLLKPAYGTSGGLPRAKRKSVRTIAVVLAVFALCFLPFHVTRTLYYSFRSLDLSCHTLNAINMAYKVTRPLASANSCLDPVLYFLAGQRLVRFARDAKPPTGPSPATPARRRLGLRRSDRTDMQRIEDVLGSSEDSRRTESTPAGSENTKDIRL
P2X purinoceptor 2 (Homo sapiens, UniProt Q9UBL9), sequence (Q9UBL9 whole entry): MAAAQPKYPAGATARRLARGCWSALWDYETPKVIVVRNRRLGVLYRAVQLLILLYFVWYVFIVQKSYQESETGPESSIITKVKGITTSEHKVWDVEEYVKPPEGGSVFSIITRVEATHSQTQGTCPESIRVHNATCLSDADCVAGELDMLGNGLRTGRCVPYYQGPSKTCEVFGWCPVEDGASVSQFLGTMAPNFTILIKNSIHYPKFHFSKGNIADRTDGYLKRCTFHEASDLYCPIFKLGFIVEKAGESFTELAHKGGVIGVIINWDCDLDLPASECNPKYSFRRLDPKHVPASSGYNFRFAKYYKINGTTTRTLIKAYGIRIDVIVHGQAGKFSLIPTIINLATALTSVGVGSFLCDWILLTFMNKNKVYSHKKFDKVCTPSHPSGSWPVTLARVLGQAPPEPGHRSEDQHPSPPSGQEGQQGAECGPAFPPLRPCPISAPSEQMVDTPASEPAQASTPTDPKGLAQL

SMILES | EC50 (P2Y purinoceptor 2) | EC50 (P2X purinoceptor 4 [2]) | EC50 (P2Y purinoceptor 4) | EC50 (P2X purinoceptor 1) | EC50 (P2X purinoceptor 3) | EC50 (P2X purinoceptor 7) | also measured
Nc1ncnc2c1ncn2[C@@H]1O[C@H](COP(=O)(O)OP(=O)(O)OP(=O)(O)OP(=O)(O)OC[C@H]2O[C@@H](n3cnc4c(N)ncnc43)[C@H](O)[C@@H]2O)[C@@H](O)[C@H]1O [DIADENOSINE TETRAPHOSPHATE] | 0.72 µM | 1 µM | 3 µM | 0.182 µM | 0.5 µM | – | EC50 (P2X purinoceptor 2 [1]): 15 µM
Nc1ncnc2c1ncn2[C@@H]1O[C@H](COP(=O)(O)CP(=O)(O)OP(=O)(O)O)[C@@H](O)[C@H]1O [DIPHOSPHOMETHYLPHOSPHONIC ACID ADENOSYL ESTER] | – | – | – | 0.2 µM | 0.74 µM | > 100 µM | EC50 (P2Y purinoceptor 12): > 100 µM; EC50 (P2X purinoceptor 4 [3]): 33 µM; EC50 (P2X purinoceptor 2 [4]): 100 µM; EC50 (P2X purinoceptor 6): > 8 µM; EC50 (P2Y purinoceptor 1 [5]): > 100 µM; EC50 (P2X purinoceptor 5): > 7 µM
O=c1ccn([C@@H]2O[C@H](COP(=O)(O)OP(=O)(O)OP(=O)(O)O)[C@@H](O)[C@H]2O)c(=O)[nH]1 [URIDINE TRIPHOSPHATE] | 0.14 µM | – | 2.6 µM | – | – | – | EC50 (P2Y purinoceptor 6): 6 µM; EC50 (P2Y purinoceptor 1 [6]): > 100 µM; EC50 (P2Y purinoceptor 11): > 100 µM
CN([C@@H](Cc1ccc(OS(=O)(=O)c2cccc3cnccc23)cc1)C(=O)N1CCN(c2ccccc2)CC1)S(=O)(=O)c1cccc2cnccc12 | – | 100 µM | – | – | – | 0.034 µM | –

Source: ChEMBL document CHEMBL1135773, “Purine and pyrimidine (P2) receptors as drug targets” (J Med Chem, 2002)
